The values below are quoted from earlier work in US6479068B1, “Therapeutic nutrient regimen for alleviating mucositis, stomatitis and cachexia in oncology patients” (Baxter International Inc., priority 2000, dated 2002).

For the series the following is noted: in vivo.

`[Se]` [Selenium, selenium]: the absorption is listed as 50-100%.
